Data: the NIST ThermoML archive (doi:10.1016/j.fluid.2013.10.029)

Experiments:
[1] = xn = mol fraction of the nth substance listed; conditions: 101.33 kPa, Liquid, Vibrating tube method
[2] = excess molar enthalpy (molar enthalpy of mixing); xn = mol fraction of the nth substance listed; conditions: 298.15 K, 101 kPa, Liquid, isothermal titration calorimeter

c1cc[nH]c1 [pyrrole] + c1ccncc1
mass density [kg/m3], [1]
Conditions	298.15 K	308.15 K	318.15 K	328.15 K	338.15 K
x1 = 0.0735	977.37	967.47	957.53	947.53	937.46
x1 = 0.1006	977.04	967.22	957.34	947.41	937.4
x1 = 0.1428	976.57	966.85	957.07	947.23	937.32
x1 = 0.1978	975.9	966.3	956.66	946.95	937.15
x1 = 0.2273	975.56	966.03	956.45	946.8	937.07
x1 = 0.3021	974.44	965.06	955.63	946.12	936.52
x1 = 0.3704	973.5	964.22	954.89	945.49	936.01
x1 = 0.4409	972.25	963.08	953.85	944.54	935.14
x1 = 0.5426	970.64	961.59	952.47	943.27	933.99
x1 = 0.6168	969.44	960.46	951.41	942.28	933.06
x1 = 0.682	968.6	959.68	950.68	941.6	932.43
x1 = 0.7554	967.69	958.82	949.87	940.85	931.72
x1 = 0.8374	966.69	957.88	948.98	939.99	930.91
x1 = 0.9063	966.15	957.38	948.53	939.58	930.54
x1 = 0.9591	965.77	957.04	948.21	939.3	930.28
x1 = 1	965.54	956.83	948.03	939.14	930.13

[2]
Conditions	excess molar enthalpy [kcal/mol]
x1 = 0.03	-0.0466
x1 = 0.06	-0.106
x1 = 0.0898	-0.164
x1 = 0.1197	-0.22
x1 = 0.1497	-0.274
x1 = 0.1797	-0.326
x1 = 0.2096	-0.375
x1 = 0.2395	-0.422
x1 = 0.2695	-0.466
x1 = 0.2994	-0.505
x1 = 0.3295	-0.541
x1 = 0.3594	-0.572
x1 = 0.3895	-0.597
x1 = 0.4195	-0.616
x1 = 0.4495	-0.629
x1 = 0.4795	-0.634
x1 = 0.4832	-0.637
x1 = 0.4902	-0.637
x1 = 0.5095	-0.633
x1 = 0.5202	-0.633
x1 = 0.5396	-0.625
x1 = 0.5502	-0.622
x1 = 0.5696	-0.61
x1 = 0.5802	-0.604
x1 = 0.5906	-0.595
x1 = 0.6102	-0.58
x1 = 0.6402	-0.551
x1 = 0.6702	-0.517
x1 = 0.7002	-0.479
x1 = 0.7302	-0.437
x1 = 0.7602	-0.393
x1 = 0.7901	-0.347
x1 = 0.8201	-0.298
x1 = 0.8501	-0.249
x1 = 0.8801	-0.198
x1 = 0.9101	-0.147
x1 = 0.9401	-0.0953
x1 = 0.9701	-0.0432
